# Reference: publication doi:10.1101/2020.02.10.936898v1 (biorxiv, 2020)
# Biological target: SARS-CoV M^pro (Severe acute respiratory syndrome-related coronavirus, UniProt P0C6X7)
# Experiment: biochemical
# Type: biochemical
row,SMILES,IC50 [nM]
1,"O=C(/C=C/c1ccccc1)N[C@H](C(=O)N[C@@H](C[C@@H]1CCNC1=O)C(=O)C(=O)NCc1ccccc1)C1CC1 [11q, (S)-N-benzyl-3-((S)-2-cinnamamido-2-cyclopropylacetamido)-2-oxo-4-((S)-2-oxopyrrolidin-3-yl)butanamide]",6270 ± 2870
2,"O=C(/C=C/c1ccccc1)N[C@@H](CC1CCC1)C(=O)N[C@@H](C[C@@H]1CCNC1=O)C(=O)C(=O)NCc1ccccc1 [11t, (S)-N-benzyl-3-((S)-2-cinnamamido-3-cyclobutylpropanamido)-2-oxo-4-((S)-2-oxopyrrolidin-3-yl)butanamide]",1440 ± 400
3,"C#CC[C@H](NC(=O)/C=C/c1ccccc1)C(=O)N[C@@H](C[C@@H]1CCNC1=O)C(=O)C(=O)NCc1ccccc1 [11p, (S)-N-((S)-4-(benzylamino)-3,4-dioxo-1-((S)-2-oxopyrrolidin-3-yl)butan-2-yl)-2-cinnamamidopent-4-ynamide]",10700 ± 7340
4,"O=C(/C=C/c1ccccc1)N[C@@H](CC1CC1)C(=O)N[C@@H](C[C@@H]1CCNC1=O)C(=O)C(=O)NCc1ccccc1 [11s, (S)-N-benzyl-3-((S)-2-cinnamamido-3-cyclopropylpropanamido)-2-oxo-4-((S)-2-oxopyrrolidin-3-yl)butanamide]",240 ± 80
5,"O=C(/C=C/c1ccccc1)N[C@@H](Cc1ccccc1)C(=O)N[C@@H](C[C@@H]1CCNC1=O)C(=O)C(=O)NCc1ccccc1 [11a, (S)-N-benzyl-3-((S)-2-cinnamamido-3-phenylpropanamido)-2-oxo-4-((S)-2-oxopyrrolidin-3-yl)butanamide]",1950 ± 240
6,"CC(C)C[C@H](NC(=O)/C=C/c1ccccc1)C(=O)N[C@@H](C[C@@H]1CCNC1=O)C(=O)C(=O)NCc1ccccc1 [11n, (S)-N-((S)-4-(benzylamino)-3,4-dioxo-1-((S)-2-oxopyrrolidin-3-yl)butan-2-yl)-2-cinnamamido-4-methylpentanamide]",330 ± 40
7,"CCCC[C@H](NC(=O)/C=C/c1ccccc1)C(=O)N[C@@H](C[C@@H]1CCNC1=O)C(=O)C(=O)NCc1ccccc1 [11o, (S)-N-((S)-4-(benzylamino)-3,4-dioxo-1-((S)-2-oxopyrrolidin-3-yl)butan-2-yl)-2-cinnamamidohexanamide]",8500 ± 3710
8,"O=C(/C=C/c1ccccc1)N[C@@H](CC1CCCCC1)C(=O)N[C@@H](C[C@@H]1CCNC1=O)C(=O)C(=O)NCc1ccccc1 [11r, (S)-N-benzyl-3-((S)-2-cinnamamido-3-cyclohexylpropanamido)-2-oxo-4-((S)-2-oxopyrrolidin-3-yl)butanamide]",710 ± 360
9,"CC(C)(C)OC(=O)N[C@@H](C[C@@H]1CCNC1=O)C(=O)C(=O)NCc1ccccc1 [11f, tert-Butyl ((S)-4-(benzylamino)-3,4-dioxo-1-((S)-2-oxopyrrolidin-3-yl)butan-2-yl)carbamate]",> 50000
10,"O=C(/C=C/c1ccccc1)N[C@@H](CC1CCCC1)C(=O)N[C@@H](C[C@@H]1CCNC1=O)C(=O)C(=O)NCc1ccccc1 [11u, (S)-N-benzyl-3-((S)-2-cinnamamido-3-cyclopentylpropanamido)-2-oxo-4-((S)-2-oxopyrrolidin-3-yl)butanamide]",1270 ± 340
11,"O=C(/C=C/c1ccccc1)N[C@@H](Cc1ccc(F)cc1)C(=O)N[C@@H](C[C@@H]1CCNC1=O)C(=O)C(=O)NCc1ccccc1 [11m, (S)-N-benzyl-3-((S)-2-cinnamamido-3-(4-fluorophenyl)propanamido)-2-oxo-4-((S)-2-oxopyrrolidin-3-yl)butanamide]",> 50000
